A short description of data set [1]: Absorption maximum of the dye. In kind it is physicochemical. The source says:
(§1) Examples of the compounds according to the invention are listed in Tables 2-6, where the structures as well as the absorption and fluorescence maxima are indicated. The spectra of selected compounds are shown FIGS. 5-18.

Data set [2] in a line: Fluorescence maximum of the dye. In kind it is physicochemical.
Text: as §1

Marks after values point to notes of the source that are not given here.

Take `CN(CCCC(=O)O)C(=O)c1ccccc1-c1c2cc/c(=N/Cc3ccc(S(=O)(=O)O)cc3S(=O)(=O)O)c(S(=O)(=O)O)c-2oc2c(S(=O)(=O)O)c(NCc3ccc(S(=O)(=O)O)cc3S(=O)(=O)O)ccc12.CS(=O)(=O)O` [Compound 31]: the λabs in data set [1] (solvent water/acetonitrile 1:1) was 532^c nm.

Turning to `CN(C)c1ccc2c(c1)C(C)(C)c1cc3c(cc1=C2c1c(F)c(F)c(SCC(=O)O)c(F)c1F)CCC[N+]=3Cc1ccc(S(=O)(=O)O)cc1S(=O)(=O)O` [Compound 38], the λabs in data set [1] (solvent PBS pH 7.4) is recorded as 646^b nm. Also, in data set [2] (solvent PBS pH 7.4), the λfl was 667^b nm. Consider `CC1(C)C=C(CS(=O)(=O)O)c2cc3c(cc2N1CCS(=O)(=O)O)[Si](C)(C)c1cc2c(cc1=C3NC(CCS(=O)(=O)O)C(=O)O)C(CS(=O)(=O)O)=CC(C)(C)[N+]=2CCS(=O)(=O)O` (stereo not drawn) [Compound 96], for which, in data set [1] (solvent PBS pH 7.4), the λabs is listed as 518^b nm. The λfl in data set [2] (solvent PBS pH 7.4) is listed as 695^b nm. The like results for `CN(CCCC(=O)O)C(=O)c1ccccc1C1=c2cc3c(cc2[Si](C)(C)c2cc4c(cc21)C(CS(=O)(=O)O)CC(C)(C)N4Cc1ccc(S(=O)(=O)O)cc1S(=O)(=O)O)=[N+](Cc1ccc(S(=O)(=O)O)cc1S(=O)(=O)O)C(C)(C)CC3CS(=O)(=O)O` (stereo not drawn) [Compound 73] were, in that order, 686^b nm and 708^b nm. On to `O=C(O)c1ccccc1-c1c2cc/c(=N/CCc3ccc(S(=O)(=O)O)cc3)cc-2oc2cc(NCCc3ccc(S(=O)(=O)O)cc3)ccc12` [Compound 18], for which the λabs in data set [1] (solvent water/acetonitrile 1:1) is on record as 530^c nm. Further, the λfl in data set [2] (solvent PBS pH 7.4) is recorded as 551^b nm. Regarding `CN(C)c1ccc2c(c1)C(C)(C)c1cc3c(cc1=C2)CCC[N+]=3CS(=O)(=O)O` [Compound 75], in data set [1] (solvent ethanol), the λabs is 597^a nm. In addition, in data set [2] (solvent ethanol), the λfl is 621^a nm. With `CC1(C)c2cc3c(cc2C(c2c(Cl)cccc2Cl)=c2cc4c(cc21)=[N+](Cc1ccc(S(=O)(=O)O)cc1S(=O)(=O)O)C(C)(C)C=C4CS(=O)(=O)O)CCCN3CCCC(=O)O` [Compound 52], the λabs in data set [1] (solvent PBS pH 7.4) is listed as 673^b nm. In addition, the λfl in data set [2] (solvent PBS pH 7.4) was 698^b nm. For `CC1(C)c2c(cc3c4c2CCCN4CCC3)C=c2cc3c(cc21)=[N+](Cc1ccc(S(=O)(=O)O)cc1S(=O)(=O)O)CCC3` [Compound 79] the same measures were 627^b nm and 649^b nm. On to `CC1(C)CC(CS(=O)(=O)O)c2cc3c(cc2N1Cc1ccc(S(=O)(=O)O)cc1S(=O)(=O)O)[Si](C)(C)c1cc2c(cc1=C3c1cc(C(=O)O)ccc1C(=O)O)C(CS(=O)(=O)O)CC(C)(C)[N+]=2Cc1ccc(S(=O)(=O)O)cc1S(=O)(=O)O` (stereo not drawn) [Compound 74], for which the λabs in data set [1] (solvent PBS pH 7.4) is given as 675^b nm. Also, the λfl in data set [2] (solvent PBS pH 7.4) is on record as 698^b nm. For `Cc1c(CC(=O)O)c(=O)oc2cc(NCc3ccc(S(=O)(=O)O)cc3S(=O)(=O)O)c(S(=O)(=O)O)cc12` [Compound 111] the same measures were 348^b nm and 449^b nm. Consider `CC1(C)CC(CS(=O)(=O)O)c2cc3c(cc2=[N+]1CCCC(=O)O)Oc1cc(N(Cc2ccc(S(=O)(=O)O)cc2S(=O)(=O)O)Cc2ccc(S(=O)(=O)O)cc2S(=O)(=O)O)ccc1N=3` (stereo not drawn) [Compound 97], for which, in data set [1] (solvent PBS pH 7.4), the λabs is recorded as 649^b nm. The λfl in data set [2] (solvent PBS pH 7.4) was 667^b nm. The like results for `C[Si]1(C)c2cc3c(cc2C=c2cc4c(cc21)=[N+](Cc1ccc(S(=O)(=O)O)cc1S(=O)(=O)O)CCC4)CCCN3CCCC(=O)O` [Compound 94] were, in that order, 670^b nm and 693^b nm. Turning to `CC[N+]1=c2cc3c(cc2C(CS(=O)(=O)O)=CC1(C)C)=C(c1n(C)cc[n+]1CCCCC(=O)O)c1cc2c(cc1C3(C)C)N(Cc1ccc(S(=O)(=O)O)cc1S(=O)(=O)O)C(C)(C)C=C2CS(=O)(=O)O` [Compound 61], in data set [1] (solvent PBS pH 7.4), the λabs was 743^b nm. The λfl in data set [2] (solvent PBS pH 7.4) is 776^b nm.

On to `CC1(C)c2cc3c(cc2N=c2cc4c(cc21)=[N+](CCCC(=O)O)C(C)(C)CC4CS(=O)(=O)O)CCCN3Cc1ccc(S(=O)(=O)O)cc1S(=O)(=O)O` (stereo not drawn) [Compound 102], for which the λabs in data set [1] (solvent PBS pH 7.4) is 721^b nm. Besides, the λfl in data set [2] (solvent PBS pH 7.4) is 742^b nm. For `CN(Cc1ccc(S(=O)(=O)O)cc1S(=O)(=O)O)c1ccc2c(c1)[Si](C)(C)C1=C/C(=[N+](/C)Cc3ccc(S(=O)(=O)O)cc3S(=O)(=O)O)C=CC1=C2c1c(F)c(F)c(SCC(=O)O)c(F)c1F` [Compound 54] the same measures were 685^b nm and 709^b nm. `Cc1cc(=O)n(CC(=O)O)c2cc(Nc3nc(Cl)nc(NCCS(=O)(=O)O)n3)ccc12` [Compound 114]: the λabs in data set [1] (solvent PBS pH 7.4) is given as 338^b nm. For the same molecule, the λfl in data set [2] (solvent PBS pH 7.4) is recorded as 385^b nm. `Cc1c(CC(=O)O)c(=O)oc2cc(Nc3nc(Cl)nc(NCCS(=O)(=O)O)n3)ccc12` [Compound 112]: the λabs in data set [1] (solvent PBS pH 7.4) is recorded as 338^b nm. For the same molecule, the λfl in data set [2] (solvent PBS pH 7.4) is 416^b nm.

For `CN(Cc1ccc(S(=O)(=O)O)cc1S(=O)(=O)O)c1ccc2c(c1)[Si](C)(C)C1=C/C(=[N+](/C)Cc3ccc(S(=O)(=O)O)cc3S(=O)(=O)O)C=CC1=C2c1cc(C(=O)O)ccc1C(=O)O` [Compound 70], the λabs in data set [1] (solvent PBS pH 7.4) was 649^b nm. Further, in data set [2] (solvent PBS pH 7.4), the λfl is 670^b nm.

On to `CCN1c2cc3c(cc2C(CS(=O)(=O)O)=CC1(C)C)C(c1n(C)cc[n+]1CCCC(=O)O)=c1cc2c(cc1C3(C)C)=[N+](Cc1ccc(S(=O)(=O)O)cc1S(=O)(=O)O)CCC2` [Compound 56], for which the λabs in data set [1] (solvent PBS pH 7.4) is listed as 724^b nm. Also, the λfl in data set [2] (solvent PBS pH 7.4) is given as 746^b nm. In the case of `CC1(C)c2cc3c(cc2C(c2c(F)c(F)c(SCCS(=O)(=O)O)c(F)c2F)=c2cc4c(cc21)=[N+](Cc1ccc(S(=O)(=O)O)cc1S(=O)(=O)O)C(C)(C)C=C4CS(=O)(=O)O)CCCN3CCCC(=O)O` [Compound 48], the λabs in data set [1] (solvent PBS pH 7.4) is on record as 682^b nm. The λfl in data set [2] (solvent PBS pH 7.4) is on record as 705^b nm.

Consider `CCN1c2cc3c(cc2C(CS(=O)(=O)O)=CC1(C)C)C(c1n(C)cc[n+]1CCCCS(=O)(=O)O)=c1cc2c(cc1C3(C)C)=[N+](Cc1ccc(S(=O)(=O)O)cc1S(=O)(=O)O)CCC2` [Compound 55], for which the λabs in data set [1] (solvent PBS pH 7.4) is listed as 725^b nm. In addition, the λfl in data set [2] (solvent PBS pH 7.4) is on record as 749^b nm. As for `O=C(O)c1ccccc1-c1c2cc/c(=N/CCc3ccc(S(=O)(=O)O)cc3S(=O)(=O)O)cc-2oc2cc(NCCc3ccc(S(=O)(=O)O)cc3S(=O)(=O)O)ccc12` [Compound 23], the λabs in data set [1] (solvent water/acetonitrile 1:1) is 532^c nm. Besides, in data set [2] (solvent PBS pH 7.4), the λfl was 559^b nm. Regarding `CN(Cc1ccc(S(=O)(=O)O)cc1S(=O)(=O)O)c1ccc2c(c1)[Si](C)(C)C1=C/C(=[N+](/C)Cc3ccc(S(=O)(=O)O)cc3S(=O)(=O)O)C=CC1=C2NCCCC(=O)O` [Compound 90], the λabs in data set [1] (solvent PBS pH 7.4) was 483^b nm. The λfl in data set [2] (solvent PBS pH 7.4) is 637^b nm. As to `CN(CCCC(=O)O)C(=O)c1ccccc1-c1c2cc/c(=N/Cc3cc(S(=O)(=O)O)c4cc(S(=O)(=O)O)cc(S(=O)(=O)O)c4c3)c(S(=O)(=O)O)c-2oc2c(S(=O)(=O)O)c(NCc3cc(S(=O)(=O)O)c4cc(S(=O)(=O)O)cc(S(=O)(=O)O)c4c3)ccc12` [Compound 34], in data set [1] (solvent PBS pH 7.4), the λabs is on record as 530^b nm.

For `CC1(C)C=C(CS(=O)(=O)O)c2cc3c(cc2=[N+]1CCCC(=O)O)Oc1cc2c(cc1N=3)CCCN2Cc1ccc(S(=O)(=O)O)cc1S(=O)(=O)O` [Compound 99], in data set [1] (solvent PBS pH 7.4), the λabs was 682^b nm. Moreover, the λfl in data set [2] (solvent PBS pH 7.4) is listed as 700^b nm. As to `CC1(C)CC(CS(=O)(=O)O)c2cc3c(cc2=[N+]1CCCC(=O)O)Oc1cc2c(cc1N=3)CCCN2Cc1ccc(S(=O)(=O)O)cc1S(=O)(=O)O` (stereo not drawn) [Compound 98], the λabs in data set [1] (solvent PBS pH 7.4) is reported as 664^b nm. Moreover, the λfl in data set [2] (solvent PBS pH 7.4) is on record as 682^b nm.

Take `CN(Cc1ccc(S(=O)(=O)O)cc1S(=O)(=O)O)c1ccc2c(c1)[Si](C)(C)C1=C/C(=[N+](/C)Cc3ccc(S(=O)(=O)O)cc3S(=O)(=O)O)C=CC1=C2C#N` [Compound 89]: the λabs in data set [1] (solvent PBS pH 7.4) is 746^b nm. The λfl in data set [2] (solvent PBS pH 7.4) is 763^b nm. On to `CC1(C)CC(CS(=O)(=O)O)c2cc3c(cc2=[N+]1Cc1ccc(S(=O)(=O)O)cc1S(=O)(=O)O)Oc1cc(N)c2cc(S(=O)(=O)O)ccc2c1N=3` (stereo not drawn) [Compound 101], for which the λabs in data set [1] (solvent PBS pH 7.4) was 647^b nm. The λfl in data set [2] (solvent PBS pH 7.4) is listed as 678^b nm. Consider `CN(CCCC(=O)O)C(=O)c1ccccc1C1=c2cc3c(cc2[Si](C)(C)c2cc4c(cc21)C(CS(=O)(=O)O)=CC(C)(C)N4Cc1ccc(S(=O)(=O)O)cc1S(=O)(=O)O)=[N+](Cc1ccc(S(=O)(=O)O)cc1S(=O)(=O)O)C(C)(C)C=C3CS(=O)(=O)O` [Compound 71], for which the λabs in data set [1] (solvent PBS pH 7.4) is 722^b nm. Moreover, the λfl in data set [2] (solvent PBS pH 7.4) is given as 752^b nm. As for `CN(CCCC(=O)O)C(=O)c1ccccc1-c1c2cc/c(=N/CCc3ccc(S(=O)(=O)O)cc3)cc-2oc2cc(NCCc3ccc(S(=O)(=O)O)cc3)ccc12` [Compound 21], the λabs in data set [1] (solvent water/acetonitrile 1:1) was 538^c nm. In data set [2] (solvent PBS pH 7.4), the λfl is 559^b nm. With `CN(CCCC(=O)O)C(=O)c1c(-c2c3cc/c(=N/Cc4ccc(S(=O)(=O)O)cc4S(=O)(=O)O)c(S(=O)(=O)O)c-3oc3c(S(=O)(=O)O)c(NCc4ccc(S(=O)(=O)O)cc4S(=O)(=O)O)ccc23)cc(S(=O)(=O)O)cc1S(=O)(=O)O` [Compound 32], the λabs in data set [1] (solvent water/acetonitrile 1:1) is on record as 530^c nm. On the same count and under the same terms, for `O=C(O)CN(CCS(=O)(=O)O)C(=O)c1ccccc1-c1c2cc/c(=N/Cc3ccc(S(=O)(=O)O)cc3S(=O)(=O)O)c(S(=O)(=O)O)c-2oc2c(S(=O)(=O)O)c(NCc3ccc(S(=O)(=O)O)cc3S(=O)(=O)O)ccc12` [Compound 30] the value was 536^c nm; for `CN(CCCC(=O)O)C(=O)c1cc2ccccc2cc1-c1c2cc/c(=N/Cc3ccc(S(=O)(=O)O)cc3S(=O)(=O)O)c(S(=O)(=O)O)c-2oc2c(S(=O)(=O)O)c(NCc3ccc(S(=O)(=O)O)cc3S(=O)(=O)O)ccc12.CS(=O)(=O)O.CS(=O)(=O)O` [Compound 33], 539^c nm. Still for that read-out and setting: for `CN(CCCC(=O)O)C(=O)c1ccccc1-c1c2cc/c(=N/Cc3ccc(S(=O)(=O)O)cc3S(=O)(=O)O)c(S(=O)(=O)O)c-2oc2c(S(=O)(=O)O)c(NCc3ccc(S(=O)(=O)O)cc3S(=O)(=O)O)ccc12` [Compound 29] the value was 531^c nm; for `CN(CCCC(=O)O)C(=O)c1ccccc1C1=c2cc3c(cc2Oc2cc4c(cc21)CCCN4Cc1ccc(S(=O)(=O)O)cc1S(=O)(=O)O)=[N+](Cc1ccc(S(=O)(=O)O)cc1S(=O)(=O)O)CCC3` [Compound 28], 567^c nm.
